In this assay the target is human SPR (Homo sapiens (Human), UniProt P35270). The experiment in a line: Evaluation Example 2: Measurement of human SPR inhibitory activity (seven concentrations, sepiapterin absorbance at 420 nm). It is filed as biochemical. In outline:
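Reactions ran 240 min at room temperature in 100 mM Tris-HCl pH 7.5 with 0.01% BSA. They contained tag-cleaved, E. coli-expressed full-length human SPR (diluted to 150 ng/mL), seven compound concentrations from 0.14 to 100 nM, and sepiapterin/NADPH added as a 120 μM/160 μM solution. Inhibition was calculated from sepiapterin absorbance at 420 nm.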

The mark [1] stands for this setting: Evaluation Example 2, seven concentrations 0.14 nM to 100 nM, 240 minutes at room temperature, read-out: IC50.
[2] abbreviates: sepiapterin absorbance, Table 41, read-out: concentration at 50% inhibition of human SPR (IC50).

The structures appear in SMILES notation. Read-outs that look alike come from different tables or passages of the source.

Chain of human SPR (P35270 whole entry): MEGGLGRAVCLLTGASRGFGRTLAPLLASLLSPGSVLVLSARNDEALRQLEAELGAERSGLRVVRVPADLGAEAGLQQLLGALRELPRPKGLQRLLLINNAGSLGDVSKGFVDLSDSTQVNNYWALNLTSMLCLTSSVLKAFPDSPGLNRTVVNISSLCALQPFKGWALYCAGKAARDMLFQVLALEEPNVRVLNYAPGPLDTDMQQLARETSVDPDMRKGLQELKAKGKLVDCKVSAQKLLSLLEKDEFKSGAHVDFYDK

Turning to `CC(C)Cn1c(=O)c(C(=O)NC2CC2)c(O)n2ncc(/C=C/C(=O)N3CCO[C@H](CO)C3)c12` [compound 521, (S,E)-N-Cyclopropyl-7-hydroxy-3-(3-(2-(hydroxymethyl)morpholino)-3-oxoprop-1-en-1-yl)-4-isobutyl-5-oxo-4,5-dihydropyrazolo[1,5-a]pyrimidine-6-carboxamide], the IC50 under setting [1] stood at 0.59 nM.
Still for that read-out and setting: in the case of `CC(C)(C)Cn1c(=O)c(C(=O)NC2CC2)c(O)n2nc3nccnc3c12` [Synthesis Example 392, N-Cyclopropyl-7-hydroxy-10-neopentyl-9-oxo-9,10-dihydropyrazino[2′,3′:3,4]pyrazolo[1,5-a]pyrimidine-8-carboxamide] it was 1.5 nM; in that of `CC(C)Cn1c(=O)c(C(=O)NC2CC2)c(O)n2ncc(/C=C/C3CCOCC3)c12` [Synthesis Example 237, (E)-N-Cyclopropyl-7-hydroxy-4-isobutyl-5-oxo-3-(2-(tetrahydro-2H-pyran-4-yl)vinyl)-4,5-dihydropyrazolo[1,5-a]pyrimidine-6-carboxamide], 0.91 nM.
On the same count and under the same terms, in the case of `Cc1nn2c(O)c(C(=O)NC3CC3)c(=O)n(CC(C)C)c2c1/C=C/C(=O)N1CCCC1C1CC1` (stereo not shown) [Synthesis Example 619, (E)-N-Cyclopropyl-3-(3-(2-cyclopropylpyrrolidin-1-yl)-3-oxoprop-1-en-1-yl)-7-hydroxy-4-isobutyl-2-methyl-5-oxo-4,5-dihydropyrazolo[1,5-a]pyrimidine-6-carboxamide] it was 1.58 nM; in that of `Cc1nn2c(O)c(C(=O)NC3CC3)c(=O)n(CC(C)C)c2c1/C=C/C(=O)N1CCc2cc(Br)ccc21` [Synthesis Example 670, (E)-3-(3-(5-Bromoindolin-1-yl)-3-oxoprop-1-en-1-yl)-N-cyclopropyl-7-hydroxy-4-isobutyl-2-methyl-5-oxo-4,5-dihydropyrazolo[1,5-a]pyrimidine-6-carboxamide], 11.5 nM; in that of `CC(C)Cn1c(=O)c(C(=O)NCC(F)(F)F)c(O)n2nc(Br)cc12` [Synthesis Example 273, 2-Bromo-7-hydroxy-4-isobutyl-5-oxo-N-(2,2,2-trifluoroethyl)-4,5-dihydropyrazolo[1,5-a]pyrimidine-6-carboxamide], 11.6 nM.
On the same count and under the same terms, the value for `CC(C)Cn1c(=O)c(C(=O)NC2CC2)c(O)n2ncc(C(=O)NCC3CCOCC3)c12` [Synthesis Example 221, N6-Cyclopropyl-7-hydroxy-4-isobutyl-5-oxo-N3-((tetrahydro-2H-pyran-4-yl)methyl)-4,5-dihydropyrazolo[1,5-a]pyrimidine-3,6-dicarboxamide] was 0.64 nM; that for `CC(C)(C)Cn1c(=O)c(C(=O)NC2CC2)c(O)n2nc(Nc3cncc(C#N)n3)cc12` [Synthesis Example 324, 2-((6-Cyanopyrazin-2-yl)amino)-N-cyclopropyl-7-hydroxy-4-neopentyl-5-oxo-4,5-dihydropyrazolo[1,5-a]pyrimidine-6-carboxamide] was 1.61 nM; that for `C=Cc1c(N)nn2c(O)c(C(=O)NC3CC3)c(=O)n(CC(C)C)c12` [Synthesis Example 435, 2-Amino-N-cyclopropyl-7-hydroxy-4-isobutyl-5-oxo-3-vinyl-4,5-dihydropyrazolo[1,5-a]pyrimidine-6-carboxamide] was 1.46 nM.
Consider `CC(C)Cn1c(=O)c(C(=O)NC2CC2)c(O)n2nc(N)c(/C=C/C(=O)N3CCOCC3)c12` [Synthesis Example 416, (E)-2-Amino-N-cyclopropyl-7-hydroxy-4-isobutyl-3-(3-morpholino-3-oxoprop-1-en-1-yl)-5-oxo-4,5-dihydropyrazolo[1,5-a]pyrimidine-6-carboxamide], for which the IC50 under setting [1] was 0.59 nM.
Consider `CC1(Cn2c(=O)c(C(=O)NC3CC3)c(O)n3ncc(/C=C/C(=O)N4C[C@@H]5C[C@H]4CO5)c23)CC1` [Synthesis Example 374], for which the IC50 under setting [1] is 0.65 nM.
With `CC(C)(C)Cn1c(=O)c(C(=O)NC2CC2)c(O)n2nc(Nc3cncc(C(N)=O)n3)cc12` [Synthesis Example 345, 2-((6-Carbamoylpyrazin-2-yl)amino)-N-cyclopropyl-7-hydroxy-4-neopentyl-5-oxo-4,5-dihydropyrazolo[1,5-a]pyrimidine-6-carboxamide], under setting [1], the IC50 was 0.92 nM.
`Cc1nn2c(O)c(C(=O)NC3CC3)c(=O)n(CC(C)(C)C)c2c1/C=C/C(=O)N1CCC(F)(F)C1` [Synthesis Example 627, (E)-N-Cyclopropyl-3-(3-(3,3-difluoropyrrolidin-1-yl)-3-oxoprop-1-en-1-yl)-7-hydroxy-2-methyl-4-neopentyl-5-oxo-4,5-dihydropyrazolo[1,5-a]pyrimidine-6-carboxamide]: the IC50 under setting [1] was 0.94 nM.
`Cc1nn2c(O)c(C(=O)NC3CC3)c(=O)n(CC(C)C)c2c1/C=C/C(=O)N1CCC[C@@H]1C(C)C` [Synthesis Example 629, (R,E)-N-Cyclopropyl-7-hydroxy-4-isobutyl-3-(3-(2-isopropylpyrrolidin-1-yl)-3-oxoprop-1-en-1-yl)-2-methyl-5-oxo-4,5-dihydropyrazolo[1,5-a]pyrimidine-6-carboxamide]: the IC50 under setting [1] worked out at 1.14 nM.
With `CC(C)Cn1c(=O)c(C(=O)NC2CC2)c(O)n2ncc(/C=C/C(=O)N3CCC[C@H]3C(C)C)c12` [compound 600, (S,E)-N-Cyclopropyl-7-hydroxy-4-isobutyl-3-(3-(2-isopropylpyrrolidin-1-yl)-3-oxoprop-1-en-1-yl)-5-oxo-4,5-dihydropyrazolo[1,5-a]pyrimidine-6-carboxamide], the IC50 under setting [1] is 1.47 nM.
On to `Cc1nn2c(O)c(C(=O)NC3CC3)c(=O)n(CC(C)C)c2c1/C=C/C(=O)N1CCC(C#N)CC1` [Synthesis Example 684, (E)-3-(3-(4-Cyanopiperidin-1-yl)-3-oxoprop-1-en-1-yl)-N-cyclopropyl-7-hydroxy-4-isobutyl-2-methyl-5-oxo-4,5-dihydropyrazolo[1,5-a]pyrimidine-6-carboxamide], for which the IC50 under setting [2] worked out at 0.89 nM.
As for `COC[C@H]1COCCN1C(=O)/C=C/c1c(C)nn2c(O)c(C(=O)NC3CC3)c(=O)n(CC(C)C)c12` [Synthesis Example 683, (S,E)-N-Cyclopropyl-7-hydroxy-4-isobutyl-3-(3-(3-(methoxymethyl)morpholino)-3-oxoprop-1-en-1-yl)-2-methyl-5-oxo-4,5-dihydropyrazolo[1,5-a]pyrimidine-6-carboxamide], the IC50 under setting [2] amounted to 0.82 nM.
With `CC(C)Cn1c(=O)c(C(=O)NC2CC2)c(O)n2ncc(/C=C/C(=O)N3CCN(CC4CC(F)(F)C4)C[C@@H]3C)c12` [Synthesis Example 744, (S,E)-N-Cyclopropyl-3-(3-(4-((3,3-difluorocyclobutyl)methyl)-2-methylpiperazin-1-yl)-3-oxoprop-1-en-1-yl)-7-hydroxy-4-isobutyl-5-oxo-4,5-dihydropyrazolo[1,5-a]pyrimidine-6-carboxamide], the IC50 under setting [2] is 1.57 nM.
As to `C[C@H]1COCCN1C(=O)/C=C/c1cnn2c(O)c(C(=O)NC3CC3)c(=O)n(CC3(F)CC3)c12` [Synthesis Example 379, (S,E)-N-Cyclopropyl-4-((1-fluorocyclopropyl)methyl)-7-hydroxy-3-(3-(3-methylmorpholino)-3-oxoprop-1-en-1-yl)-5-oxo-4,5-dihydropyrazolo[1,5-a]pyrimidine-6-carboxamide], the IC50 under setting [1] was found to be 0.7 nM.

(Values after patent publication US20240092784A1, “CONDENSED HETEROCYCLIC COMPOUND” (NISSAN CHEMICAL CORPORATION, priority 2020, published 2024).)
